Results as given in patent US20260258048A1, “LACTAM-CONTAINING IMIDAZOPYRIDAZINE IL-17 INHIBITOR COMPOUNDS” (Janssen Pharmaceutica NV, priority 2023, published 2026).

Key:
[1] = biological target: IL-17A(FLAG-tagged): IL-17RA(His-tagged) (Homo sapiens, UniProt Q16552, K93Q); assay: IL-17A(FLAG-tagged): IL-17RA(His-tagged) binding disruption Eu-HTRF assay; conditions: class of the average IC50 where tested more than once
Method in brief: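 Compound (22-point, 2-fold series) was pre-incubated 1 h at rt with FLAG-IL-17A, added as a 2× solution (1 μM). A 2× mix of C-terminal 10×His IL-17RA, Eu-anti-FLAG donor and D2-anti-His acceptor in PBS/0.01% Triton X-100/200 mM KF was then added for 2 h at rt. The 665/615 nm ratio was fitted to one-site competition for IC50.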

[2] = tested on: IL-17A-induced G-CSF production in human normal keratinocyte (NHK); assay: NHK assay: IL-17A-induced G-CSF production in normal human keratinocytes; assay type: cell-based; conditions: 24 h, IL-17A 5 ng/mL, class of the average IC50 where tested more than once
Method in brief: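 Adult keratinocytes at 3000-4000 cells/well; recombinant human IL-17A pre-incubated 1 h at rt with titrated compound, then added to cells (final 5 ng/mL IL-17A, 0.2% DMSO, 5% FBS) for 24 h at 37 °C. Supernatant G-CSF quantified by HTRF against a standard curve to give IC50; viability checked by CellTiter-Glo versus DMSO.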

Sequence of UniProt Q16552 (Q16552 with tags, fused parts or gaps K93Q): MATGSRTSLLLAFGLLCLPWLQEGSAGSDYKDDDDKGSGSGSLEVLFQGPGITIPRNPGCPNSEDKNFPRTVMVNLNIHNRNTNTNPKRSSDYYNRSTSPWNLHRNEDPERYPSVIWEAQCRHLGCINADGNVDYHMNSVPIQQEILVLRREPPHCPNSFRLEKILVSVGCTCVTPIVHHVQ

## O=C(N[C@H](c1cn2ncc(C[C@H]3C(=O)NC[C@@H]3C(F)(F)F)cc2n1)C1CCC(F)(F)CC1)c1nonc1C1CC1 (relative stereo) [Example 101, 4-Cyclopropyl-N—[(S)-(4,4-difluorocyclohexyl)-[7-[[(3R*,4R*)-2-oxo-4-(trifluoromethyl)pyrrolidin-3-yl]methyl]imidazo[1,2-b]pyridazin-2-yl]methyl]-1,2,5-oxadiazole-3-carboxamide]
[1]
  IC50: 0.4 to 4 µM
[2]; Homo sapiens, Keratinocyte
  IC50: 0.4 to 4 µM

## O=C(N[C@H](c1cn2ncc(CC3CC(F)(F)CNC3=O)cc2n1)C1CCC(F)(F)CC1)c1nonc1C1CC1 (single isomer, unassigned) [Example 1, 4-Cyclopropyl-N—((S)-(7-(((R*)-5,5-difluoro-2-oxopiperidin-3-yl)methyl)imidazo[1,2-b]pyridazin-2-yl)(4,4-difluorocyclohexyl)methyl)-1,2,5-oxadiazole-3-carboxamide]
[1]
  IC50: < 0.4 µM
[2]
  IC50: < 0.4 µM

## O=C(N[C@H](c1cn2ncc(CC3CC(F)(F)CNC3=O)cc2n1)C1CCC(F)(F)CC1)c1nonc1C1CC1 (single isomer, unassigned) [Example 2, 4-Cyclopropyl-N—((S)-(7-(((S*)-5,5-difluoro-2-oxopiperidin-3-yl)methyl)imidazo[1,2-b]pyridazin-2-yl)(4,4-difluorocyclohexyl)methyl)-1,2,5-oxadiazole-3-carboxamide]
[1]
  IC50: 0.4 to 4 µM
[2]
  IC50: > 4 µM

## COc1nonc1C(=O)N[C@@H](CCC(C)(C)C(F)(F)F)c1cn2ncc(CC3C[C@@H](C(F)(F)F)NC3=O)cc2n1 (single isomer, unassigned) [Example 5, 4-Methoxy-N-[(1S)-5,5,5-trifluoro-4,4-dimethyl-1-[7-[[(3R*,5S)-2-oxo-5-(trifluoromethyl)pyrrolidin-3-yl]methyl]imidazo[1,2-b]pyridazin-2-yl]pentyl]-1,2,5-oxadiazole-3-carboxamide]
[1]
  IC50: > 4 µM
[2]
  IC50: > 4 µM

## COc1nonc1C(=O)N[C@@H](CCC(C)(C)C(F)(F)F)c1cn2ncc(CC3C[C@@H](C(F)(F)F)NC3=O)cc2n1 (single isomer, unassigned) [Example 6, 4-Methoxy-N-[(1S)-5,5,5-trifluoro-4,4-dimethyl-1-[7-[[(3S*,5S)-2-oxo-5-(trifluoromethyl)pyrrolidin-3-yl]methyl]imidazo[1,2-b]pyridazin-2-yl]pentyl]-1,2,5-oxadiazole-3-carboxamide]
[1]
  IC50: < 0.4 µM
[2]
  IC50: < 0.4 µM

## COc1nonc1C(=O)N[C@H](c1cn2ncc(CC3C[C@@H](C(F)(F)F)NC3=O)cc2n1)C1CCC(F)(F)CC1 (single isomer, unassigned) [Example 7, N—[(S)-(4,4-Difluorocyclohexyl)-[7-[[(3R*,5S)-2-oxo-5-(trifluoromethyl)pyrrolidin-3-yl]methyl]imidazo[1,2-b]pyridazin-2-yl]methyl]-4-methoxy-1,2,5-oxadiazole-3-carboxamide]
[1]
  IC50: < 0.4 µM
[2]
  IC50: < 0.4 µM

## COc1nonc1C(=O)N[C@H](c1cn2ncc(CC3C[C@@H](C(F)(F)F)NC3=O)cc2n1)C1CCC(F)(F)CC1 (single isomer, unassigned) [Example 8, N—((S)-(4,4-Difluorocyclohexyl)(7-(((3S*,5S)-2-oxo-5-(trifluoromethyl)pyrrolidin-3-yl)methyl)imidazo[1,2-b]pyridazin-2-yl)methyl)-4-methoxy-1,2,5-oxadiazole-3-carboxamide]
[1]
  IC50: > 4 µM
[2]
  IC50: > 4 µM

## Cc1nonc1C(=O)N[C@H](c1cn2ncc(CC3C[C@@H](C(F)(F)F)NC3=O)cc2n1)C1CCC(F)(F)CC1 (single isomer, unassigned) [Example 9, N—[(S)-(4,4-Difluorocyclohexyl)-[7-[[(3S*,5S)-2-oxo-5-(trifluoromethyl)pyrrolidin-3-yl]methyl]imidazo[1,2-b]pyridazin-2-yl]methyl]-4-methyl-1,2,5-oxadiazole-3-carboxamide]
[1]
  IC50: < 0.4 µM
[2]
  IC50: < 0.4 µM

## Cc1nonc1C(=O)N[C@H](c1cn2ncc(CC3C[C@@H](C(F)(F)F)NC3=O)cc2n1)C1CCC(F)(F)CC1 (single isomer, unassigned) [Example 10, N—[(S)-(4,4-Difluorocyclohexyl)-[7-[[(3R*,5S)-2-oxo-5-(trifluoromethyl)pyrrolidin-3-yl]methyl]imidazo[1,2-b]pyridazin-2-yl]methyl]-4-methyl-1,2,5-oxadiazole-3-carboxamide]
[1]
  IC50: > 4 µM
[2]
  IC50: > 4 µM

## O=C(N[C@H](c1cn2ncc(C[C@@]34CCC[C@H](C3)NC4=O)cc2n1)C1CCC(F)(F)CC1)c1nonc1C1CC1 (single isomer, unassigned) [Example 11]
[1]
  IC50: < 0.4 µM
[2]; Homo sapiens, Keratinocyte
  IC50: < 0.4 µM

## CC1(C)CC(Cc2cnn3cc([C@@H](NC(=O)c4nonc4C4CC4)C4CCC(F)(F)CC4)nc3c2)C(=O)N1 (single isomer, unassigned) [Example 13, 4-Cyclopropyl-N—[(S)-(4,4-difluorocyclohexyl)-[7-[[(3R*)-5,5-dimethyl-2-oxo-pyrrolidin-3-yl]methyl]imidazo[1,2-b]pyridazin-2-yl]methyl]-1,2,5-oxadiazole-3-carboxamide]
[1]
  IC50: < 0.4 µM
[2]; Homo sapiens, Keratinocyte
  IC50: 0.4 to 4 µM

## CC1(C)C[C@H](Cc2cnn3cc([C@@H](NC(=O)c4nonc4C4CC4)C4CCC(F)(F)CC4)nc3c2)C(=O)N1 (single isomer, unassigned) [Example 14]
[1]
  IC50: > 4 µM
[2]; Homo sapiens, Keratinocyte
  IC50: > 4 µM

## CC1(C)CNC(=O)C1Cc1cnn2cc([C@@H](NC(=O)c3nonc3C3CC3)C3CCC(F)(F)CC3)nc2c1 (single isomer, unassigned) [Example 15, 4-Cyclopropyl-N—[(S)-(4,4-difluorocyclohexyl)-[7-[[(3R*)-4,4-dimethyl-2-oxo-pyrrolidin-3-yl]methyl]imidazo[1,2-b]pyridazin-2-yl]methyl]-1,2,5-oxadiazole-3-carboxamide]
[1]
  IC50: > 4 µM
[2]; Homo sapiens, Keratinocyte
  IC50: > 4 µM

## CC1(C)CNC(=O)C1Cc1cnn2cc([C@@H](NC(=O)c3nonc3C3CC3)C3CCC(F)(F)CC3)nc2c1 (single isomer, unassigned) [Example 16, 4-Cyclopropyl-N—[(S)-(4,4-difluorocyclohexyl)-[7-[[(3S*)-4,4-dimethyl-2-oxo-pyrrolidin-3-yl]methyl]imidazo[1,2-b]pyridazin-2-yl]methyl]-1,2,5-oxadiazole-3-carboxamide]
[1]
  IC50: 0.4 to 4 µM
[2]
  IC50: > 4 µM

## O=C(N[C@H](c1cn2ncc(C[C@@]34CC[C@H](C3)NC4=O)cc2n1)C1CCC(F)(F)CC1)c1nonc1C1CC1 (single isomer, unassigned) [Example 17]
[1]
  IC50: 0.4 to 4 µM
[2]; Homo sapiens, Keratinocyte
  IC50: > 4 µM

## O=C(N[C@H](c1cn2ncc(C[C@]34CC[C@@H](C3)NC4=O)cc2n1)C1CCC(F)(F)CC1)c1nonc1C1CC1 (single isomer, unassigned) [Example 18]
[1]
  IC50: 0.4 to 4 µM
[2]; Homo sapiens, Keratinocyte
  IC50: 0.4 to 4 µM

## CC[C@@H](c1cnn2cc([C@@H](NC(=O)c3nonc3C3CC3)C3CCC(F)(F)CC3)nc2c1)[C@@H]1C[C@@H](C(F)(F)F)NC1=O (single isomer, unassigned) [Example 19]
[1]
  IC50: < 0.4 µM
[2]; Homo sapiens, Keratinocyte
  IC50: < 0.4 µM

## O=C(N[C@H](c1cn2ncc(CC3CCNC3=O)cc2n1)C1CCC(F)(F)CC1)c1nonc1C1CC1 (single isomer, unassigned) [Example 21, 4-Cyclopropyl-N—[(S)-(4,4-difluorocyclohexyl)-[7-[[(3R*)-2-oxopyrrolidin-3-yl]methyl]imidazo[1,2-b]pyridazin-2-yl]methyl]-1,2,5-oxadiazole-3-carboxamide]
[1]
  IC50: 0.4 to 4 µM
[2]; Homo sapiens, Keratinocyte
  IC50: > 4 µM

## O=C(N[C@H](c1cn2ncc(CC3CCNC3=O)cc2n1)C1CCC(F)(F)CC1)c1nonc1C1CC1 (single isomer, unassigned) [Example 22, 4-Cyclopropyl-N—[(S)-(4,4-difluorocyclohexyl)-[7-[[(3S*)-2-oxopyrrolidin-3-yl]methyl]imidazo[1,2-b]pyridazin-2-yl]methyl]-1,2,5-oxadiazole-3-carboxamide]
[1]
  IC50: > 4 µM
[2]
  IC50: > 4 µM

## O=C(N[C@H](c1cn2ncc(CC3CCCCNC3=O)cc2n1)C1CCC(F)(F)CC1)c1nonc1C1CC1 (single isomer, unassigned) [Example 25, 4-Cyclopropyl-N—((S)-(4,4-difluorocyclohexyl(7-(((R*)-2-oxoazepan-3-yl)methyl)imidazo[1,2-b]pyridazin-2-yl)methyl)-1,2,5-oxadiazole-3-carboxamide]
[1]
  IC50: 0.4 to 4 µM
[2]; Homo sapiens, Keratinocyte
  IC50: > 4 µM

## O=C(N[C@H](c1cn2ncc(CC3CCCCNC3=O)cc2n1)C1CCC(F)(F)CC1)c1nonc1C1CC1 (single isomer, unassigned) [Example 26, 4-Cyclopropyl-N—((S)-(4,4-difluorocyclohexyl)(7-(((S*)-2-oxoazepan-3-yl)methyl)imidazo[1,2-b]pyridazin-2-yl)methyl)-1,2,5-oxadiazole-3-carboxamide]
[1]
  IC50: 0.4 to 4 µM
[2]
  IC50: > 4 µM

## CC1(Cc2cnn3cc([C@@H](NC(=O)c4nonc4C4CC4)C4CCC(F)(F)CC4)nc3c2)CCCNC1=O (single isomer, unassigned) [Example 27, 4-Cyclopropyl-N—((S)-(4,4-difluorocyclohexyl)(7-(((R*)-3-methyl-2-oxopiperidin-3-yl)methyl)imidazo[1,2-b]pyridazin-2-yl)methyl)-1,2,5-oxadiazole-3-carboxamide]
[1]
  IC50: 0.4 to 4 µM
[2]
  IC50: > 4 µM
